What was measured:
[1] = system: Lindernia pyridaria (flasepimpernel); assay: Test Example 5: synergistic action by water surface application, LIDPY; assay type: in vivo; details: 75 g a.i./ha, run6, 4 weeks after application
Text: (§1) Test for Synergistic Action by Water Sureface Application
(§2) In a greenhouse, paddy soil was filled in pots (250 cm^2), and seeds of weed (barnyardgrass, bulrush, monochoria, falsepimpemel, indian toothcup, waterwort and flatstage) were inoculated in the surface layer of the soil in the pots under wet conditions and covered with soil. All of the weed species were individually inoculated in each pot. Each pot was watered to 2 cm in depth and the depth was kept during the test period. When the weeds grew up to 1.5-2.2 leaf stage (or pair), a predetermined amount of the compound as a testing solution prepared in the same manner as the above-mentioned Test Example 4 was applied to the pots by water surface treatment method. The herbicidal effect was evaluated at 4 weeks after the application on the same scale as in thetest method of Test Example 4.
(§3) Synergistic action of Test Example 4 and Test Example 5 were evaluated by Colby's equation. [formula]
(§4) E: expected herbicidal activity at p+q g/ha
(§5) X: the percentage of herbicidal activity at p g/ha
(§6) Y: the percentage of herbicidal activity at q g/ha

[2] = system: Rotala indica (indian toothcup); assay: Test Example 5: synergistic action by water surface application, ROTIN; assay type: in vivo; details: 75 g a.i./ha, run6, 4 weeks after application
Text: as §1, §2, §3, §4, §5, §6

| melting point | SMILES | Herbicidal efficacy, known herbicide [1] | Herbicidal efficacy, known herbicide [2] |
| --- | --- | --- | --- |
| 76 to 87 °C | Cn1nnnc1SCc1c(S(C)(=O)=O)ccc(C(=O)C2=C(Sc3ccccc3)CCCC2=O)c1Cl |  |  |
| 67 to 71 °C | CCn1nnnc1SCc1c(S(C)(=O)=O)ccc(C(=O)C2C(=O)CCCC2=O)c1Cl |  |  |
|  | CCC1(CC2(c3cccc(Cl)c3)CO2)C(=O)c2ccccc2C1=O (racemic) [G, (RS)-2-[2-(3-chlorophenyl)2,3-epoxypropyl]-2-ethylindan-1,3-dione] | 60% | 60% |

Source: patent publication US6770599B2, “Tetrazole derivatives” (Bayer CropScience KK, priority 2000, dated 2004)
